Results on two molecules are retold here after patent US20250041226A1, “MULTIPARTICULATE ALBACONAZOLE COMPOSITION” (PALAU PHARMA, S.L.U., priority 2021, published 2025).

A short description of data set [1]: Dissolution test (Ph. Eur. 2.9.3, paddle apparatus, 0.1 N HCl, 45 min). The format is physicochemical. The conditions noted are these: HCl 0.1N, 45 minutes where stated. As to the method:
• Analytical procedure: Ph. Eur. <2.9.3>; UVNis
• Paddle apparatus. • Stirring speed: 100 rpm. • Dissolution medium: 0.1 N Hydrochloric acid.
0.1 N Hydrochloric acid: using a pipette, transfer 8.5 ml of hydrochloric acid to a 1,000 ml calibrated flask and dilute to volume with water HPLC grade. • Volume of dissolution medium: 900 ml. • Dissolution time: 45 min. • Temperature of dissolution medium: 37±0.5° C.

Data set [2] is described as follows: Related substances (total impurities) by HPLC in stability experiments. The conditions noted are these: within the coating. Type of data set: physicochemical. Here is the method: • Analytical procedure: Ph. Eur. <2.2.29>; HPLC
• Column: Luna C18 (2) 5 μm, 150×4.6 mm. • Mobile phase: Acetonitrile/0.5% phosphoric acid as following:
• 0.5% phosphoric acid: using a pipette, transfer 5 ml of o-phosphoric acid (85%) to a 1,000 ml calibrated flask and dilute to volume with water HPLC grade. • Flow: 1.0 ml/min. • Wavelength detection: 210 nm. • Injection volume: 20 μl. • Column temperature: 30° C. • Retention time of Albaconazole: approx. 20.0 min. • Chromatogram time: 29 min.
Test solution: Grind the content (pellets) of, at least, 5 capsules, from the obtained powder weight, accurately, about 150 mg and transfer to a 25 ml calibrated flask. Add about 20 ml of acetonitrile HPLC grade and apply the ultrasound during approximately 10 min. Allow to cool and dilute to volume with acetonitrile HPLC grade. Filter through a 0.45 μm Millex HV-PVDF filter or similar, discard the first drops of filtrate (perform in triplicate).
Individual related substances that are lower than the quantification limit (Quantification limit: QL=0.015%), and any peak corresponding to placebo have not been quantified. The compositions of the invention may be used in the treatment of fungal infections in a patient by orally administering said compositions to said patient.

SMILES strings stand for the structures.

On to `C[C@@H](n1cnc2cc(Cl)ccc2c1=O)[C@](O)(Cn1cncn1)c1ccc(F)cc1F` [Albaconazole form Ill, Albaconazole], for which the “Dissolution behaviour (observation in words)” value in data set [1] is “excellent dissolution results”. In data set [2], the “Impurities during stability experiments (in words)” value is given as “low impurities during stability experiments”. Consider `C[C@@H](n1cnc2cc(Cl)ccc2c1=O)[C@](O)(Cn1cncn1)c1ccc(F)cc1F` [crystalline Albaconazole, Albaconazole], for which the “Dissolution behaviour (observation in words)” value in data set [1] was “dissolves faster at early times than amorphous Albaconazole”.
